Source: patent US7141680B2, “Aromatic compounds possessing antifungal or antibacterial activity” (Genelabs Technologies, Inc., priority 2002, dated 2006)
Counter-ions that a name gives are not always drawn.

What was measured:
bacteria = assay: Minimum inhibitory concentration (MIC) assay, bacteria; assay type: cell-based
Protocol: The assays described below were used to measure the minimum inhibitory concentration (MIC) of a compound necessary to inhibit visible growth of the organism tested. These assays are adapted from NCCLS protocols M7-A4 and M27-A (NCCLS vol 17:9 and vol 17:2) as modified by Sandven, S., Clin. Micro. (1999) 37:12, p. 3856–3859. MIC values for Aspergillus species were determined using NCCLS protocol M38-P.
All compounds were dissolved in 100% DMSO to a stock concentration of 10 mM and used fresh stock compounds in powder form were kept frozen until needed and used freshly. When used for test purposes, compounds were diluted in the appropriate media depending on the organism being tested.
For yeast and aspergillus species, seven 1:2 serial dilutions of compound in appropriate media buffered with MOPS at pH 7.0 were prepared such that the final starting test compound concentrations were 44.4 μM for yeast and 50 μM aspergillus species. For bacteria, dilutions were made in growth media used for the particular bacteria being tested.
Five well-separated colonies from a 24 h Sabouraud Dextrose plate incubated at 35° C. were picked and resuspended into 2 mL of normal saline. The O.D.530 was read and the culture was adjusted to 0.5 McFarland units with normal saline. A 1:2000 dilution was made with RPMI 1640 media buffered with MOPS at pH 7.0 and 100 μL of this inoculum preparation was added to an equal volume of test compound-containing media. 25 μL of the redox indicator Alamar Blue (Biosource International) was added to each well and the plates were incubated for 48 h at 35° C. Wells having yeast growth changed color from blue to pink.
Inoculums are made in the same manner as yeast except all dilutions are made in normal saline, with a final dilution of 1:200 and an inoculum of 10 μL.

Aspergillus species = assay: Minimum inhibitory concentration (MIC) assay, filamentous fungi; assay type: cell-based; settings: antifungal activity, lowest concentration at which 75% inhibition of growth is observed after 48 h
Outline: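 Broth microdilution following NCCLS M38-P, in MOPS-buffered medium at pH 7.0, with seven 1:2 serial dilutions starting at a final 50 μM. Conidial inoculum came from 7-day potato dextrose agar slants, adjusted to OD 0.09–0.11 then diluted. MIC = lowest concentration giving 75% growth inhibition after 48 h at 35 °C.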

`CN/C(=N\CCO)NCCNC(=O)c1ccc2[nH]c(C(=O)Nc3ccc4[nH]c(C(=O)NCCN/C(=N/CCO)NC)cc4c3)cc2c1` [Compound 92, 1H-Indole-2,5-dicarboxylic acid 2-({2-[N′-(2-hydroxyethyl)-N″-methylguanidino]ethyl}amide) 5-({2-(2-[N′-(2-hydroxyethyl)-N″-methylguanidino]ethylcarbamoyl)-1H-indol-5-yl}amide]dihydrochloride] was tested, and the MIC (bacteria) was ≤ 45.5 µM and the MIC (Aspergillus species) was ≤ 50 µM.
For `N=C(N)CCNC(=O)c1cc(NC(=O)c2ccc(C(=O)NCCNC(=N)N)cc2)cn1CC1CC1` [Compound 100, N-[5-(2-Carbamimidoyl-ethylcarbamoyl)-1-cyclopropylmethyl-1H-pyrrol-3-yl]-N′-(2-guanidino-ethyl)-terephthalamide], the MIC (bacteria) was ≤ 45.5 µM and the MIC (Aspergillus species) was ≤ 50 µM.
With `CNC(=N)NCCNC(=O)c1cc2cc(NC(=O)c3cc4cc(NC(=N)NC)ccc4[nH]3)ccc2[nH]1` [Compound 108, 5-[(5-(N′-methyl-guanidine)-1H-indole-2-carbonyl)-amino]-1H-indole-2-carboxylic acid [2-(N′-methyl-guanidino)ethyl]-amide] the MIC (bacteria) was ≤ 45.5 µM and the MIC (Aspergillus species) was ≤ 50 µM.
`CNC(=N)NCCNC(=O)c1cc2cc(NC(=O)c3cc4cc(NC(=O)CNC(=N)NC)ccc4[nH]3)ccc2[nH]1` [Compound 110] was tested, and the MIC (bacteria) was ≤ 45.5 µM and the MIC (Aspergillus species) was ≤ 50 µM.
In the case of `CC(C)Cn1cc(NC(=O)c2cc3cc(NC(=O)CCNC(=N)N)ccc3[nH]2)cc1C(=O)NCCC(=N)N` [Compound 115, 5-(3-Guanidino-propionylamino)-1H-indole-2-carboxylic acid [5-(2-carbamimidoyl-ethylcarbamoyl)-1-isobutyl-1H-pyrrol-3-yl]-amide], the MIC (bacteria) is reported as ≤ 45.5 µM and the MIC (Aspergillus species) is reported as ≤ 50 µM.
In the case of `N=C(N)NCCNC(=O)c1ccc2[nH]c(C(=O)Nc3ccc4cc(C(=O)NCNC(=N)N)[nH]c4c3)cc2c1` [Compound 171, 1H-Indole-2,5-dicarboxylic acid 5-[(2-guanidino-ethyl)-amide] 2-{[2-(guanidinomethyl-carbamoyl)-1H-indol-6-yl]-amide}], the MIC (bacteria) is reported as ≤ 45.5 µM and the MIC (Aspergillus species) is reported as ≤ 50 µM.
For `N=C(N)NCCNC(=O)c1ccc2[nH]c(C(=O)Nc3ccc4sc(C(=O)NCCNC(=N)N)cc4c3)cc2c1` [Compound 174, 1H-Indole-2,5-dicarboxylic acid 5-[(2-guanidino-ethyl)-amide] 2-{[2-(2-guanidino-ethylcarbamoyl)-benzo[b]thiophen-5-yl]-amide}], the MIC (bacteria) was ≤ 45.5 µM and the MIC (Aspergillus species) was ≤ 50 µM.
For `N=C(N)NCCNC(=O)c1ccc2[nH]c(C(=O)Nc3ccc4cc(C(=O)NCCNC(=N)c5ccccn5)[nH]c4c3)cc2c1` [Compound 180, 1H-Indole-2,5-dicarboxylic acid 5-[(2-guanidinoethyl)amide] 2-[(2-{2-[(pyridine-2-carboximidoyl)amino]ethylcarbamoyl}-1H-indol-6-yl)amide]], the MIC (bacteria) was ≤ 45.5 µM and the MIC (Aspergillus species) was ≤ 50 µM.
In the case of `N=C(N)CCCNC(=O)c1cc2ccc(NC(=O)c3cc4cc(C(=O)NCCNC(=N)N)ccc4[nH]3)cc2[nH]1` [Compound 181, 1H-Indole-2,5-dicarboxylic acid 2-{[2-(3-carbamimidoylpropylcarbamoyl)-1H-indol-6-yl]amide} 5-[(2-guanidinoethyl)amide]], the MIC (bacteria) is reported as ≤ 45.5 µM and the MIC (Aspergillus species) is reported as ≤ 50 µM.
